For 25 molecules, EC50 results are on record in patent US20200131132A1, “FARNESOID X RECEPTOR AGONISTS AND USES THEREOF” (Metacrine, Inc., priority 2017, published 2020).

One may read the EC50 as the concentration needed to bring the measured effect to its halfway point. Lower therefore signals a more potent agent.

A value given as a limit tells only on which side of the number the result lay.

In the test the target is T1, hFXR (Homo sapiens, UniProt Q96RI1).
T1 construct: expressed in transfected cells; host or cells: CV-1 cells
T1 sequence (Q96RI1 1-486): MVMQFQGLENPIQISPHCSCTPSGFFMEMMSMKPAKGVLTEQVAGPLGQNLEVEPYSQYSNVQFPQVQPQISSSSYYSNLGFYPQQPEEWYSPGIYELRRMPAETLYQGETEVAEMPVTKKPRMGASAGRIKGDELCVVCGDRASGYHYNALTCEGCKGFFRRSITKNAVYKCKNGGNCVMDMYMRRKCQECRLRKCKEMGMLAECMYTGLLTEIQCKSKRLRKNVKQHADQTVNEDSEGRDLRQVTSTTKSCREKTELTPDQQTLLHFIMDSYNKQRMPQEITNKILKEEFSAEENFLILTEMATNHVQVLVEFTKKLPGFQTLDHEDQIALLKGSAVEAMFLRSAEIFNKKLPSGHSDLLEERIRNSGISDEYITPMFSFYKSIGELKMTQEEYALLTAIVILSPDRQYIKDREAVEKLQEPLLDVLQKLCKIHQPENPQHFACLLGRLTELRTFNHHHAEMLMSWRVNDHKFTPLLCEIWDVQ
T1 sequence (P19793 1-462 partner): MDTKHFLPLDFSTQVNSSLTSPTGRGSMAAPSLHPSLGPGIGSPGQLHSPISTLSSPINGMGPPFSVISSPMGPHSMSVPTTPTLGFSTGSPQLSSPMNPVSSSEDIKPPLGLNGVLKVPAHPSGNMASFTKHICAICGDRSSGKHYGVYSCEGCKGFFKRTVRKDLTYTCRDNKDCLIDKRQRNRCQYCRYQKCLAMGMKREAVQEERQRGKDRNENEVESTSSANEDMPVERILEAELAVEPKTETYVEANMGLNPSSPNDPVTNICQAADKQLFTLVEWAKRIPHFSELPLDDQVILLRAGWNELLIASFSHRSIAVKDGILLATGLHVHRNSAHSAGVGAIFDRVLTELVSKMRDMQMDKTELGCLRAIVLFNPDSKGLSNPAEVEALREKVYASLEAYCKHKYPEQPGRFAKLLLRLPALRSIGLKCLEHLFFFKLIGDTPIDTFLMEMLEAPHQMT
Kind of test: In Vitro FXR Assay (TK). Format: cell-based. The note with it: CV-1 cells transfected with hFXR, hRXR, TK-ECRE-luc and pCMX-YFP; compounds incubated 18 hrs; luminescence. In outline:
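Reporter transactivation by hFXR was measured in CV-1 cells carrying hRXR and a TK-ECRE-luc construct, with compound treatment for 18 h before lysis and luminescence detection.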

`COc1ccc(-c2ccc(CN(C(=O)CC(C)(C)C)c3nccc4cc(CC#N)ccc34)cc2)cc1C` [Compound 27, N-(6-(Cyanomethyl)isoquinolin-1-yl)-N-((4′-methoxy-3′-methyl-[1,1′-biphenyl]-4-yl)methyl)-3,3-dimethylbutanamide] returned a concentration giving a half-maximal response (EC50) of at most 1000 nM.

On to `COc1ccc(-c2ccc(CN(C(=O)CC(C)(C)C)c3nccc4cc(OC(C)C)ccc34)cc2)cc1C` [Compound 11.01, N-(6-Isopropoxyisoquinolin-1-yl)-N-((4′-methoxy-3′-methyl-[1,1′-biphenyl]-4-yl)methyl)-3,3-dimethylbutanamide], for which the EC50 is at most 1000 nM.

In turn, `COc1ccc(-c2ccc(CN(C(=O)CC(C)(C)C)c3nccc4cc(N5CCC(OC)C5)ccc34)cc2)cc1C` (stereo not shown) [Compound 6.19, N-((4′-Methoxy-3′-methyl-[1,1′-biphenyl]-4-yl)methyl)-N-(6-(3-methoxypyrrolidin-1-yl)isoquinolin-1-yl)-3,3-dimethylbutanamide] yielded a concentration giving a half-maximal response (EC50) of at most 1000 nM.

Turning to `COc1ccc(-c2ccc(CN(C(=O)CC(C)(C)C)c3nccc4cc(OCCS(C)(=O)=O)ccc34)cc2)cc1C` [Compound 32, N-((4′-Methoxy-3′-methyl-[1,1′-biphenyl]-4-yl)methyl)-3,3-dimethyl-N-(6-(2-(methylsulfonyl)ethoxy)isoquinolin-1-yl)butanamide], the EC50 is at most 1000 nM.

As for `COc1ccc(-c2ccc(CN(C(=O)CC(C)(C)C)c3nccc4cc(OCCN(C)C)ccc34)cc2)cc1C` [Compound 8.04, N-(6-(2-(Dimethylamino)ethoxy)isoquinolin-1-yl)-N-((4′-methoxy-3′-methyl-[1,1′-biphenyl]-4-yl)methyl)-3,3-dimethylbutanamide], the EC50 fell in the range of 1000 to 10000 nM.

In turn, `COc1ccc(-c2ccc(CN(C(=O)CC(C)(C)C)c3nccc4cc(N(C)C)ccc34)cc2)cc1C` [Compound 6.1, N-(6-(Dimethylamino)isoquinolin-1-yl)-N-((4′-methoxy-3′-methyl-[1,1′-biphenyl]-4-yl)methyl)-3,3-dimethylbutanamide] yielded an EC50 of at most 1000 nM.

`COc1ccc(-c2ccc(CN(C(=O)CC(C)(C)C)c3nccc4cc(OCCCO)cnc34)cc2)cc1C` [Compound 8.13, N-(3-(3-Hydroxypropoxy)-1,7-naphthyridin-8-yl)-N-((4′-methoxy-3′-methyl-[1,1′-biphenyl]-4-yl)methyl)-3,3-dimethylbutanamide] displayed an EC50 of at most 1000 nM.

`COc1ccc(-c2ccc(CN(C(=O)CC(C)(C)C)c3nccc4c(C#N)cccc34)cc2)cc1C` [Compound 13.02, N-(5-Cyanoisoquinolin-1-yl)-N-((4′-methoxy-3′-methyl-[1,1′-biphenyl]-4-yl)methyl)-3,3-dimethylbutanamide] came in with a concentration for a half-maximal effect (EC50) of over 10000 nM.

In turn, `COc1ccc(-c2ccc(CN(C(=O)CC(C)(C)C)c3nccc4cc(N5CCN(C)CC5)ccc34)cc2)cc1C` [Compound 6.05, N-((4′-Methoxy-3′-methyl-[1,1′-biphenyl]-4-yl)methyl)-3,3-dimethyl-N-(6-(4-methylpiperazin-1-yl)isoquinolin-1-yl)butanamide] registered a 50% effective concentration (EC50) of 1000 to 10000 nM.

The molecule `COc1ccc(-c2ccc(CN(C(=O)CC(C)(C)C)c3nccc4cc(OCC[S+](C)[O-])ccc34)cc2)cc1C` (stereo not shown) [Compound 33, N-((4′-Methoxy-3′-methyl-[1,1′-biphenyl]-4-yl)methyl)-3,3-dimethyl-N-(6-(2-(methylsulfinyl)ethoxy)isoquinolin-1-yl)butanamide] returned an EC50 of at most 1000 nM.

In turn, `COc1ccc2c(N(Cc3ccc(-c4ccc(OC)c(C)c4)c(CO)c3)C(=O)CC(C)(C)C)nccc2c1` [Compound 21.01, N-((2-(Hydroxymethyl)-4′-methoxy-3′-methyl-[1,1′-biphenyl]-4-yl)methyl)-N-(6-methoxyisoquinolin-1-yl)-3,3-dimethylbutanamide] registered a half-maximal effective concentration (EC50) of 1000 to 10000 nM.

`COc1ccc(-c2ccc(CN(C(=O)CC(C)(C)C)c3nccc4cc(OC5COC5)ccc34)cc2)cc1C` [Compound 8.09, N-((4′-Methoxy-3′-methyl-[1,1′-biphenyl]-4-yl)methyl)-3,3-dimethyl-N-(6-(oxetan-3-yloxy)isoquinolin-1-yl)butanamide] had an EC50 of at most 1000 nM.

Regarding `COC(=O)c1cc(-c2ccc(OC)c(C)c2)ccc1CN(C(=O)CC(C)(C)C)c1nccc2cc(OC)ccc12` [Compound 20.01, Methyl 4′-methoxy-4-((N-(6-methoxyisoquinolin-1-yl)-3,3-dimethylbutanamido)methyl)-3′-methyl-[1,1′-biphenyl]-3-carboxylate], the EC50 is over 10000 nM.

In turn, `COc1ccc(-c2ccc(CN(C(=O)CC(C)(C)C)c3nccc4cc(OC5CCN(C(=O)OC(C)(C)C)CC5)ccc34)cc2)cc1C` [Compound 8.05, tert-Butyl 4-((1-(N-((4′-methoxy-3′-methyl-[1,1′-biphenyl]-4-yl)methyl)-3,3-dimethylbutanamido)isoquinolin-6-yl)oxy)piperidine-1-carboxylate] registered a concentration giving a half-maximal response (EC50) of over 10000 nM.

`COc1ccc(-c2ccc(CN(C(=O)CC(C)(C)C)c3nccc4cc(N5CCNCC5)ccc34)cc2)cc1C` [Compound 6.09, N-((4′-Methoxy-3′-methyl-[1,1′-biphenyl]-4-yl)methyl)-3,3-dimethyl-N-(6-(piperazin-1-yl)isoquinolin-1-yl)butanamide] returned an EC50 of 1000 to 10000 nM.

In the case of `COCCOc1ccc2c(N(Cc3ccc(-c4ccc(OC)c(C)c4)cc3)C(=O)CC(C)(C)C)nccc2c1` [Compound 9, N-((4′-Methoxy-3′-methyl-[1,1′-biphenyl]-4-yl)methyl)-N-(6-(2-methoxyethoxy)isoquinolin-1-yl)-3,3-dimethylbutanamide], the EC50 is at most 1000 nM.

The molecule `COC(=O)COc1ccc2c(N(Cc3ccc(-c4ccc(OC)c(C)c4)cc3)C(=O)CC(C)(C)C)nccc2c1` [Compound 9.01, Methyl 2-((1-(N-((4′-methoxy-3′-methyl-[1,1′-biphenyl]-4-yl)methyl)-3,3-dimethylbutanamido)isoquinolin-6-yl)oxy)acetate] returned an EC50 of 1000 to 10000 nM.

Turning to `COc1ccc([C@H]2CC[C@H](CN(C(=O)CC(C)(C)C)c3nccc4cc(C)ccc34)CC2)cc1C` [Compound 3, N-((trans-4-(4-Methoxy-3-methylphenyl)cyclohexyl)methyl)-3,3-dimethyl-N-(6-methylisoquinolin-1-yl)butanamide], the EC50 was at most 1000 nM.

In turn, `COc1ccc(-c2ccc(CN(C(=O)CC(C)(C)C)c3nccc4cc(N5CCCC(O)C5)ccc34)cc2)cc1C` (stereo not shown) [Compound 6.17, N-(6-(3-Hydroxypiperidin-1-yl)isoquinolin-1-yl)-N-((4′-methoxy-3′-methyl-[1,1′-biphenyl]-4-yl)methyl)-3,3-dimethylbutanamide] yielded an EC50 of at most 1000 nM.

For `COc1ccc(-c2ccc(CN(C(=O)CC(C)(C)C)c3nccc4cnccc34)cc2)cc1C` [Compound 5.03, N-((4′-Methoxy-3′-methyl-[1,1′-biphenyl]-4-yl)methyl)-3,3-dimethyl-N-(2,6-naphthyridin-1-yl)butanamide], the EC50 was in the range of 1000 to 10000 nM.

As for `COc1ccc(-c2ccc(CN(C(=O)CC(C)(C)C)c3nccc4cc(/C=C/CO)ccc34)cc2)cc1C` [Compound 23, (E)-N-(6-(3-Hydroxyprop-1-en-1-yl)isoquinolin-1-yl)-N-((4′-methoxy-3′-methyl-[1,1′-biphenyl]-4-yl)methyl)-3,3-dimethylbutanamide], the concentration for a half-maximal effect (EC50) is at most 1000 nM.

In the case of `COc1ccc(-c2ccc(CN(C(=O)CC(C)(C)C)c3nccc4cc(COCC(=O)O)ccc34)cc2)cc1C` [Compound 29.01, 2-((1-(N-((4′-Methoxy-3′-methyl-[1,1′-biphenyl]-4-yl)methyl)-3,3-dimethylbutanamido)isoquinolin-6-yl)methoxy)acetic acid], the EC50 is 1000 to 10000 nM.

`COc1ccc(-c2ccc(CN(C(C)=O)c3nccc4cc(C(C)(C)O)ccc34)cc2)cc1C` [Compound 18, N-(6-(2-Hydroxypropan-2-yl)isoquinolin-1-yl)-N-((4′-methoxy-3′-methyl-[1,1′-biphenyl]-4-yl)methyl)acetamide] showed a 50% effective concentration (EC50) of over 10000 nM.

As for `COc1ccc(-c2ccc(CN(C(=O)CC(C)(C)C)c3nccc4cc(N5CCCC5)ccc34)cc2)cc1C` [Compound 6.08, N-((4′-Methoxy-3′-methyl-[1,1′-biphenyl]-4-yl)methyl)-3,3-dimethyl-N-(6-(pyrrolidin-1-yl)isoquinolin-1-yl)butanamide], the concentration for a half-maximal effect (EC50) is at most 1000 nM.

For `COc1ccc(-c2ccc(CN(C(=O)CC(C)(C)C)c3nccc4cc(NCCO)ccc34)cc2)cc1C` [Compound 6.02, N-(6-((2-Hydroxyethyl)amino)isoquinolin-1-yl)-N-((4′-methoxy-3′-methyl-[1,1′-biphenyl]-4-yl)methyl)-3,3-dimethylbutanamide], the EC50 is at most 1000 nM.
